Some results are limits rather than exact numbers.

In test [1] the target is human recombinant D3 receptor (Homo sapiens (Human), UniProt P35462). Briefly: Test of binding inhibition for dopamine D3 receptor. As to conditions: Jump-In HEK cell membranes, 2 nM [3H]-Methylspiperone, 120 min at 25° C.; read-out: hD3_Ki. Here is the method:
Test Example 1: Test of Binding Inhibition for Dopamine D3 Receptor
(§1) (Experimental Conditions)
Cell membranes: Jump-In HEK cell membranes expressing human recombinant D3 receptor (4 μg/well)
(§2) Buffer solution: 50 mM Tris-HCl (35409-45, Nacalai Tesque) (pH 7.4) containing 120 mM NaCl (31320-05, Nacalai Tesque), 1 mM MgCl2.6H2O (20909-55, Nacalai Tesque), 5 mM KCl (28514-75, Nacalai Tesque) and 2 mM CaCl2 (067-31, NAKARAI CHEMICALS, LTD.)
Radioligand: (final concentration) 2 nM [^3H]-Methylspiperone ([^3H—N-methyl-]-Methylspiperone, NET-856, 83.8 Ci/mmol, PerkinElmer)
Non-specific ligand: (final concentration) 10 μM Butaclamol [(+)-Butaclamol Hydrochloride, D033, Sigma]
(§3) SPA beads solution: SPA beads [WGA PVT SPA Scintillation Beads, RPNQ0001 (500 mg), RPNQ0060 (2 g), PerkinElmer] (0.2 mg/well)
(§4) Incubation time and temperature: 120 min at 25° C.
(§5) Butaclamol or the compounds of the present invention were weighed and DMSO was added to make a 10 mM solution. This solution was diluted to each concentration.
[^3H]-Methylspiperone was weighed and the buffer solution was added to make a 6 nM solution.
(§6) SPA beads were weighed and stirred in water to make a 50 mg/mL solution. Using this solution, a mixture with the cell membranes was prepared.
(§7) 225 nL of the solutions of the non-specific ligand or the compounds of the present invention at each concentration (in case of vehicle, final concentration 0.3% DMSO) were added in each well of a 384-well white/clear bottom microplate (3706, Corning). Jump-In HEK Cell membranes (final reaction amount: 4 μg protein/well), the SPA beads solution (final reaction amount: 0.2 mg/well) and the buffer solution were mixed and the mixed solution was left still for 1 hour or more at 4° C. Then, 50 μL of the mixture was added to each well of the plate. In addition, 25 μL of 6 nM [^3H]-Methylspiperone (final concentration: 2 nM) was added to each well. The plate was sealed by putting TopSeal-A 96/384 well (6050185, PerkinElmer, Inc.) on the top of the plate, mixed using stirring deaerator (Well Tornado, FK-62, Sakaki-elc.) and incubated for 120 min at 25° C. After incubation, the radioactivity of [^3H]-Methylspiperone which was bonded to D3 receptor was determined by liquid scintillation counter (1450 Microbeta, PerkinElmer) in each well. Non-specific binding was calculated based on the radioactivity of [^3H]-Methylspiperone in the presence of 10 μM non-labeled Butaclamol. The total binding was calculated using the radioactivity of [^3H]-Methylspiperone in the absence of the compounds of the present invention (vehicle). The Ki values were calculated from dose-response curves.
(§8) Binding activities of the compounds of the present invention were calculated from the following Binding Inhibition Rate (%): Inhibition Rate(%)=[1−(c−a)/(b−a)]×100 • a: Average cpm of non-specific binding • b: Average cpm of total binding • c: Cpm in the presence of each test compound

Test [2] has as its target human recombinant D2 receptor (Homo sapiens (Human), UniProt P14416). Briefly: Test of binding inhibition for dopamine D2 receptor. As to conditions: Jump-In HEK cell membranes, 1.2 nM [3H]-Methylspiperone, 120 min at 25° C.; read-out: hD2_Ki. The method, then:
Test Example 2: Test of Binding Inhibition for Dopamine D2 Receptor
as §1
Cell membranes: Jump-In HEK cell membranes expressing human recombinant D2 receptor (2 μg/well)
as §2
Radioligand: (final concentration) 1.2 nM [^3H]-Methylspiperone ([^3H—N-methyl-]-Methylspiperone, NET-856, 83.8 Ci/mmol, PerkinElmer)
Non-specific ligand: (final concentration) 10 μM Butaclamol [(+)-Butaclamol Hydrochloride, D033; Sigma]
as §3, §4, §5
[^3H]-Methylspiperone was weighed and the buffer solution was added to make a 3.6 nM solution.
as §6
as §7, with “amount: 2” for “amount: 4”, “SPA bead” for “SPA beads”, “of 3.6” for “of 6”, “concentration: 1.2” for “concentration: 2”, “(6050185, PerkinElmer)” for “(6050185, PerkinElmer, Inc.)”, “to D2” for “to D3”
as §8

Chain of human recombinant D3 receptor (P35462 whole entry): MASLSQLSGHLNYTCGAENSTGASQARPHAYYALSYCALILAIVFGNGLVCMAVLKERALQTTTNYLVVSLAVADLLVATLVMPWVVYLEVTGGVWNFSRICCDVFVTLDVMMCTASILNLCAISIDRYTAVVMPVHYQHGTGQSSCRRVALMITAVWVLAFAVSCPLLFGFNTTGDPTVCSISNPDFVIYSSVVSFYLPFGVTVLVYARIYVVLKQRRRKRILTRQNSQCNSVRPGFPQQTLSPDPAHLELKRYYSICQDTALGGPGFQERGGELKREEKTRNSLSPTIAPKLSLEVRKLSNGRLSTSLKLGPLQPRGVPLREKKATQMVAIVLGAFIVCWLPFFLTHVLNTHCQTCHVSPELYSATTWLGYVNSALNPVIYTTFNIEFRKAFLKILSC
Chain of human recombinant D2 receptor (P14416 whole entry): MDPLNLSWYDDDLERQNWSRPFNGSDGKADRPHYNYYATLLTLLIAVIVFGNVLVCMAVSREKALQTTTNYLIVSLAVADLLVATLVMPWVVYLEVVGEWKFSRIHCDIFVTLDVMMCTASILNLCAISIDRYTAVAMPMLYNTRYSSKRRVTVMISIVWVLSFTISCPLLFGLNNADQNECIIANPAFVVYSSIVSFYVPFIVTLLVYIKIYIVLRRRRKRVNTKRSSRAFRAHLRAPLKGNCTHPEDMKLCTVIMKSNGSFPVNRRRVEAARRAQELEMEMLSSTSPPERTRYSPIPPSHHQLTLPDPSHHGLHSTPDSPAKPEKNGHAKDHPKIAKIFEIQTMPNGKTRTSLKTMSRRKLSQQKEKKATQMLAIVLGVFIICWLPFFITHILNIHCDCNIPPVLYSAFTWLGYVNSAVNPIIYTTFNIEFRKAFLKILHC

Consider `Cn1cc2c(C(=O)N[C@H]3CC[C@H](CCN4C[C@@H]5C[C@]5(c5cc(C(C)(F)F)on5)C4)CC3)cccc2n1` [Compound I-027], for which the Ki in test [1] was 0.3 nM; in test [2] it was more than 1800 nM.
With `Cc1ncc(CC(=O)N[C@H]2CC[C@H](CCN3CCC(c4noc(C)c4C(C)(F)F)CC3)CC2)s1` [Compound I-009], the results for the Ki in test [1] and in test [2] were 1.9 nM and 330 nM, respectively.
Taken in the same sequence, the figures for `O=C(N[C@H]1CC[C@H](CCN2CCC(c3nocc3-c3cccc(F)c3)CC2)CC1)c1cccc2ncccc12` [Compound I-003] were 0.093 nM and 36 nM.
For the molecule `CCc1cc([C@]23C[C@H]2CN(CC[C@H]2CC[C@H](NC(=O)Cc4cc(C)no4)CC2)C3)no1` [Compound I-055], the Ki in test [1] was 0.23 nM; in test [2], 850 nM.
In the case of `Cc1ncc(CC(=O)N[C@H]2CC[C@H](CCN3CCC(c4nocc4CC4CC4)CC3)CC2)s1` [Compound I-011], the values for the Ki in test [1] and in test [2] were 0.63 nM and 380 nM, respectively.
On to `Cc1ncccc1C(=O)N[C@H]1CC[C@H](CCN2C[C@@H]3C[C@]3(c3cc(C(C)(F)F)on3)C2)CC1` [Compound I-036], for which the Ki was determined as 0.25 nM in test [1] and 190 nM in test [2].
In the case of `O=C(N[C@H]1CC[C@H](CCN2CCC(c3conc3-c3ccccc3)CC2)CC1)c1cccc2ncccc12` [Compound I-005], the Ki turned out to be 1.2 nM in test [1] and 860 nM in test [2].
Turning to `Cc1ncc(CC(=O)N[C@H]2CC[C@H](CCN3CC4CC4(c4cc(CF)on4)C3)CC2)s1` (stereo partly drawn) [Compound I-029], the Ki in test [1] came out at 2.2 nM; in test [2], 1100 nM.
In the same order, the values of `CCc1cc([C@]23C[C@H]2CN(CC[C@H]2CC[C@H](NC(=O)COc4cnn(C)c4)CC2)C3)no1` [Compound I-048] are 0.71 nM and 550 nM.
In the same order, the values of `Cn1ncc(CC(=O)N[C@H]2CC[C@H](CCN3C[C@@H]4C[C@]4(c4cc(C(C)(F)F)on4)C3)CC2)n1` [Compound I-039] are 0.39 nM and 300 nM.
For `Cn1cc2c(C(=O)NN3CCC(CCN4C[C@@H]5C[C@]5(c5cc(C(C)(F)F)on5)C4)CC3)cccc2n1` [Compound I-035], the results for the Ki in test [1] and in test [2] were 0.24 nM and 870 nM, respectively.
In the same order, the values of `Cn1cc2c(C(=O)N[C@H]3CC[C@H](CCN4CCC(c5nocc5C(F)(F)C5CC5)CC4)CC3)cccc2n1` [Compound I-018] are 0.22 nM and 45 nM.
For `CCC(F)(F)c1conc1C1(F)CCN(CC[C@H]2CC[C@H](NC(=O)Cc3cnc(C)s3)CC2)CC1` [Compound I-020], the Ki came out at 0.37 nM in test [1] and 310 nM in test [2].
Taken in the same sequence, the figures for `CN1Cc2c(C(=O)N[C@H]3CC[C@H](CCN4C[C@@H]5C[C@]5(c5cc(C(C)(F)F)on5)C4)CC3)cccc2C1=O` [Compound I-045] were 0.13 nM and 86 nM.
As to `CCc1cc([C@]23C[C@H]2CN(CC[C@H]2CC[C@H](NC(=O)Cc4nnc(C)s4)CC2)C3)no1` [Compound I-059], the Ki in test [1] was 0.77 nM; in test [2] it was 550 nM.
As for `Cc1cc(C23CC2CN(CC[C@H]2CC[C@H](NC(=O)c4cccc5nn(C)cc45)CC2)C3)no1` (stereo partly drawn) [Compound I-030], the Ki was 2.9 nM in test [1] and more than 1800 nM in test [2].
Turning to `Cn1cc2c(C(=O)N[C@H]3CC[C@H](CCN4CC5CC5(c5cc(C6CC6)on5)C4)CC3)cccc2n1` (stereo partly drawn) [II-2], the Ki in test [1] amounted to 0.2 nM; in test [2], 380 nM.
For `O=C(N[C@H]1CC[C@H](CCN2CCC(c3nocc3-c3ccccc3)CC2)CC1)c1cccc2ncccc12` [Compound I-002], the Ki in test [1] was found to be 0.12 nM; in test [2], 32 nM.
`Cn1cc2c(C(=O)N[C@H]3CC[C@](F)(CCN4CCC(c5nocc5C(C)(F)F)CC4)CC3)cccc2n1` [Compound I-026]: the Ki in test [1] is 0.55 nM; in test [2], 250 nM.
Turning to `Cn1cc2c(C(=O)N[C@H]3CC[C@H](CCN4CC5CC5(c5cc(C(F)F)on5)C4)CC3)cccc2n1` (stereo partly drawn) [Compound I-032], the Ki came out at 0.4 nM in test [1] and 200 nM in test [2].
With `CCc1cc([C@]23C[C@H]2CN(CC[C@H]2CC[C@H](NC(=O)Cc4cnn(C)c4)CC2)C3)no1` [Compound I-056], the Ki was 0.62 nM in test [1] and 1000 nM in test [2].
In the case of `Cn1cc(OCC(=O)N[C@H]2CC[C@H](CCN3C[C@@H]4C[C@]4(c4cc(C(C)(F)F)on4)C3)CC2)cn1` [Compound I-044], the Ki in test [1] amounted to 0.83 nM; in test [2] it was 220 nM.
Taken in the same sequence, the figures for `CCc1cc([C@]23C[C@H]2CN(CC[C@H]2CC[C@H](NC(=O)Cc4ncc(C)o4)CC2)C3)no1` [Compound I-054] were 1.2 nM and 780 nM.
On to `CCn1c(C(=O)N[C@H]2CC[C@H](CCN3C[C@@H]4C[C@]4(c4cc(C(C)(F)F)on4)C3)CC2)cccc1=O` [Compound I-038], for which the Ki in test [1] stood at 0.073 nM; in test [2], 91 nM.
Regarding `CCc1cc([C@]23C[C@H]2CN(CC[C@H]2CC[C@H](NC(=O)c4ccc(F)c5nn(C)cc45)CC2)C3)no1` [Compound I-050], the Ki in test [1] was determined as 0.42 nM; in test [2], 200 nM.
Regarding `Cn1cc2c(C(=O)N[C@H]3CC[C@H](CCN4CC=C(c5nocc5C(C)(F)F)CC4)CC3)cccc2n1` [Compound I-024], the Ki in test [1] worked out at 0.082 nM; in test [2], 220 nM.
As to `Cc1ncc(CC(=O)N[C@H]2CC[C@H](CCN3CCC(c4nocc4C4CC4)CC3)CC2)s1` [Compound I-013], the Ki stood at 0.95 nM in test [1] and 230 nM in test [2].
In the same order, the values of `CCc1cc([C@]23C[C@H]2CN(CC[C@H]2CC[C@H](NC(=O)c4cccnc4C)CC2)C3)no1` [Compound I-047] are 1.4 nM and 530 nM.
Regarding `Cc1ncc(CC(=O)N[C@H]2CC[C@H](CCN3CCC(c4nscc4C(C)(F)F)CC3)CC2)s1` [Compound I-012], the Ki in test [1] was determined as 1.9 nM; in test [2] it was 460 nM.
As to `Cc1ncc(CC(=O)N[C@H]2CC[C@H](CCN3CCN(c4nocc4C(C)(F)F)C(C)C3)CC2)s1` (stereo partly drawn) [Compound I-019], the Ki in test [1] is 0.15 nM; in test [2], 68 nM.
Consider `Cc1cc(C23CC2CN(CC[C@H]2CC[C@H](NC(=O)Cc4cnc(C)s4)CC2)C3)no1` (stereo partly drawn) [Compound I-031], for which the Ki in test [1] is 3.8 nM; in test [2], more than 1800 nM.
As for `Cn1cc(CC(=O)N[C@H]2CC[C@H](CCN3C[C@@H]4C[C@]4(c4cc(C5CC5)on4)C3)CC2)cn1` [II-3], the Ki stood at 0.36 nM in test [1] and 730 nM in test [2].
As for `CCC(F)(F)c1conc1C1CCN(CC[C@H]2CC[C@H](NC(=O)c3cccc4nn(C)cc34)CC2)CC1` [Compound I-016], the Ki in test [1] was 0.085 nM; in test [2], 33 nM.

These data come from patent publication US11447484B2, “Cyclic compound having dopamine D3 receptor antagonistic effect” (Shionogi & Co., Ltd., priority 2018, dated 2022).
